Test [1] has as its system Rattus norvegicus. As to the kind of experiment: Tested for neuroleptic activity by measuring antagonism of d-amphetamine sulfate at intraperitoneal dosage of 5 mg/kg, after 5 hours in rat. Type of test: functional. To be noted: ip.
Test [2] has as its system Rattus norvegicus. As to the kind of experiment: Tested for neuroleptic activity by measuring antagonism of d-amphetamine sulfate at intraperitoneal dosage of 5 mg/kg, after 24 hours in rat; Range is 1.0-32. To be noted: ip. Type of test: functional.
For test [3], the species on record is Rattus norvegicus. As to the kind of experiment: Inhibition of amphetamine induced stereotypy in rats; pretreated 1 hr before amphetamine. Type of test: functional.
Test [4] deals with Rattus norvegicus. As to the kind of experiment: Tested for neuroleptic activity by measuring antagonism of d-amphetamine sulfate at intraperitoneal dosage of 5 mg/kg, after 5 hours in rat; Range is 1.0-3.2. Type of test: functional. To be noted: ip.
Test [5] deals with Rattus norvegicus. Description: Tested for neuroleptic activity by measuring antagonism of d-amphetamine sulfate at intraperitoneal dosage of 5 mg/kg, after 24 hours in rat; Range is 10-32. The note with it: ip. Type of test: functional.
The test system of test [6] is Rattus norvegicus. As to the kind of experiment: Tested for neuroleptic activity by measuring antagonism of d-amphetamine sulfate at intraperitoneal dosage of 5 mg/kg, after 1 hour in rat; Range is 0.32-1.0. Type of test: functional. The note with it: ip.
Test [7] concerns Rattus norvegicus. As to the kind of experiment: Tested for neuroleptic activity by measuring antagonism of d-amphetamine sulfate at intraperitoneal dosage of 5 mg/kg, after 24 hours in rat; Range is 3.2-10. To be noted: ip. Type of test: functional.
In test [8] the test system is Rattus norvegicus. As to the kind of experiment: Tested for neuroleptic activity by measuring antagonism of d-amphetamine sulfate at intraperitoneal dosage of 5 mg/kg, after 5 hours in rat; Range is 0.32-1.0. Type of test: functional. To be noted: ip.
Test [9] concerns Rattus norvegicus. Description: Tested for neuroleptic activity by measuring antagonism of d-amphetamine sulfate at intraperitoneal dosage of 5 mg/kg, after 1 hour in rat; Range is 1.0-3.2. Type of test: functional. The note with it: ip.
Test [10] is filed under the species Rattus norvegicus. As to the kind of experiment: animal or person. To be noted: ip, 24 h.
Description: tested for neuroleptic activity by measuring antagonism of d-amphetamine sulfate at intraperitoneal dosage of 5 mg/kg, after 24 hours in rat
For test [11], the species on record is Rattus norvegicus. As to the kind of experiment: animal or person. To be noted: ip, 5 h.
Description: tested for neuroleptic activity by measuring antagonism of d-amphetamine sulfate at intraperitoneal dosage of 5 mg/kg, after 5 hours in rat
Test [12] is filed under the species Rattus norvegicus. As to the kind of experiment: animal or person. To be noted: ip, 1 h.
Description: tested for neuroleptic activity by measuring antagonism of d-amphetamine sulfate at intraperitoneal dosage of 5 mg/kg, after 1 hour in rat
For test [13], the system named is Rattus norvegicus. As to the kind of experiment: Tested for neuroleptic activity by measuring antagonism of d-amphetamine sulfate at intraperitoneal dosage of 5 mg/kg, after 24 hours in rat; Range is 1.0-3.2. Type of test: functional. The note with it: ip.
Test [14] deals with Canis familiaris. Description: The ability of compound to prevent the emesis induced by apomorphine (0.1 mg/kg, iv) in dogs at the specified dosage of 2.0 mg/kg (1 N saline); Range is 1-2. Type of test: functional, Canis lupus familiaris.
Test [15] has as its system Rattus norvegicus. Description: Tested for neuroleptic activity by measuring antagonism of d-amphetamine sulfate at intraperitoneal dosage of 5 mg/kg, after 1 hour in rat; Range is 0.1-0.32. Type of test: functional. To be noted: ip.
The subject of test [16] is Rattus norvegicus. As to the kind of experiment: Tested for neuroleptic activity by measuring antagonism of d-amphetamine sulfate at intraperitoneal dosage of 5 mg/kg, after 5 hours in rat; Range is 0.1-0.32. Type of test: functional. To be noted: ip.
In test [17] the test system is Rattus norvegicus. Description: Tested for neuroleptic activity by measuring antagonism of d-amphetamine sulfate at intraperitoneal dosage of 5 mg/kg, after 24 hours in rat; Range is 0.32-1.0. Type of test: functional. The note with it: ip.
Test [18] concerns Canis familiaris. As to the kind of experiment: The ability of compound to prevent the emesis induced by apomorphine (0.1 mg/kg, iv) in dogs at the specified dosage of 2.0 mg/kg (1 N saline). Type of test: functional, Canis lupus familiaris.
The test system of test [19] is Canis familiaris. As to the kind of experiment: The ability of compound to prevent the emesis induced by apomorphine (0.1 mg/kg, iv) in dogs at the specified dosage of 3.2 mg/kg (sesame oil); Range is 8-9. Type of test: functional, Canis lupus familiaris.

Consider `OC(CCCN1CCc2c(c3cc(F)ccc3n2-c2ccc(Cl)cc2)C1)c1ccc(F)cc1` (centres undefined), for which the ED50 (as a rule, the midpoint of the dose-response relation) in the test with Rattus norvegicus [1] is > 32 mg/kg; with Rattus norvegicus [2], 1 mg/kg; in the test filed under Rattus norvegicus [3], > 32 mg/kg.
On to `Cl.OC(CCCN1CCc2c(c3cc(F)ccc3n2-c2ccc(F)cc2)C1)c1cccc(F)c1` (centres undefined), for which the ED50 in the test with Rattus norvegicus [4] was 1 mg/kg; in the test on Rattus norvegicus [5], 10 mg/kg; in the test with Rattus norvegicus [6], 0.32 mg/kg.
Consider `Cl.Fc1ccc(CCCCN2CCc3c(c4cc(F)ccc4n3-c3ccc(F)cc3)C2)cc1`, for which the ED50 in the test with Rattus norvegicus [7] was found to be 3.2 mg/kg; in the test on Rattus norvegicus [8], 0.32 mg/kg; in the test on Rattus norvegicus [6], 0.32 mg/kg.
In the case of `Cl.OC(CCCN1CCc2c(c3cc(F)ccc3n2-c2ccccc2)C1)c1ccc(F)cc1` (centres undefined), the figures for the ED50 in the test with Rattus norvegicus [4], in the test with Rattus norvegicus [7] and in the test on Rattus norvegicus [9] were 1 mg/kg, 3.2 mg/kg and 1 mg/kg, respectively.
`Cl.O=C(CCN1CCc2c(c3cc(F)ccc3n2-c2ccc(F)cc2)C1)c1ccc(F)cc1`: the ED50 in the test filed under Rattus norvegicus [10], in the test filed under Rattus norvegicus [11] and in the test listed under Rattus norvegicus [12] was > 32 mg/kg each time.
Consider `Cl.O=C(CCCN1CCc2c(c3cc(F)ccc3n2-c2ccc(F)cc2)C1)c1ccc(F)cc1`, for which the ED50 with Rattus norvegicus [13], in the test on Rattus norvegicus [4] and with Rattus norvegicus [9] was 1 mg/kg each time.
In the case of `CCCCCCC(=O)OC(CCCN1CCc2c(c3cc(F)ccc3n2-c2ccc(F)cc2)C1)c1ccc(F)cc1.Cl` (centres undefined), in the test on Canis familiaris [14], the Protection was 1 days.
Regarding `OC(CCCN1CCc2c(c3cc(F)ccc3n2-c2ccc(F)cc2)C1)c1ccc(F)cc1` (centres undefined) [FLUTROLINE], the figures for the ED50 in the test on Rattus norvegicus [15], in the test with Rattus norvegicus [16] and with Rattus norvegicus [17] were 0.1 mg/kg, 0.1 mg/kg and 0.32 mg/kg, respectively.
For the molecule `CCCCCCCCCC(=O)OC(CCCN1CCc2c(c3cc(F)ccc3n2-c2ccc(F)cc2)C1)c1ccc(F)cc1.Cl` (centres undefined), the Protection in the test with Canis familiaris [18] was found to be 0 days.
The molecule `CCCCC(=O)OC(CCCN1CCc2c(c3cc(F)ccc3n2-c2ccc(F)cc2)C1)c1ccc(F)cc1.Cl` (centres undefined) registered a Protection in the test on Canis familiaris [19] of 8 days.

Values taken from ChEMBL document CHEMBL1121451, “Neuroleptic activity in 5-aryltetrahydro-gamma-carbolines” (J Med Chem, 1980).
